In PubChem BioAssay (NCI):
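Assay format: 96-well plates, 48-hour exposure. TGI: total growth inhibition.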

What was measured:
Assay in all cases: NCI tumour cell line growth inhibition, 48 h
A549 NSCLC = tested on: A549 NSCLC
SNB-19 CNS = tested on: SNB-19 CNS
DMS 273 small cell lung = tested on: DMS 273 small cell lung
HL-60(TB) leukemia = tested on: HL-60(TB) leukemia
NCI-H226 lung = tested on: NCI-H226 lung
HOP-18 NSCLC = tested on: HOP-18 NSCLC
OVCAR-8 ovarian = tested on: OVCAR-8 ovarian
SK-MEL-5 melanoma = tested on: SK-MEL-5 melanoma
HCT-15 colon = tested on: HCT-15 colon
RXF 393 renal = tested on: RXF 393 renal
SK-MEL-2 melanoma = tested on: SK-MEL-2 melanoma
UO-31 renal = tested on: UO-31 renal
EKVX NSCLC = tested on: EKVX NSCLC
SNB-78 CNS = tested on: SNB-78 CNS
NCI-H522 lung = tested on: NCI-H522 lung
SF-539 CNS = tested on: SF-539 CNS
UACC-257 melanoma = tested on: UACC-257 melanoma
MOLT-4 leukemia = tested on: MOLT-4 leukemia
CAKI-1 renal = tested on: CAKI-1 renal
OVCAR-3 ovarian = tested on: OVCAR-3 ovarian
DMS 114 small cell lung = tested on: DMS 114 small cell lung
SNB-75 CNS = tested on: SNB-75 CNS
RXF-631 renal = tested on: RXF-631 renal
OVCAR-4 ovarian = tested on: OVCAR-4 ovarian
LXFL 529 NSCLC = tested on: LXFL 529 NSCLC
M19-MEL melanoma = tested on: M19-MEL melanoma
NCI-H23 lung = tested on: NCI-H23 lung
K-562 leukemia = tested on: K-562 leukemia
HCT-116 colon = tested on: HCT-116 colon
COLO 205 colon = tested on: COLO 205 colon
HOP-92 NSCLC = tested on: HOP-92 NSCLC
SN12C renal = tested on: SN12C renal
KM12 colon = tested on: KM12 colon
OVCAR-5 ovarian = tested on: OVCAR-5 ovarian
SR leukemia = tested on: SR leukemia
RPMI-8226 leukemia = tested on: RPMI-8226 leukemia
LOX IMVI melanoma = tested on: LOX IMVI melanoma
HOP-62 NSCLC = tested on: HOP-62 NSCLC
SK-OV-3 ovarian = tested on: SK-OV-3 ovarian
A498 renal = tested on: A498 renal
SF-268 CNS = tested on: SF-268 CNS
NCI-H460 lung = tested on: NCI-H460 lung
HT29 colon = tested on: HT29 colon
786-0 renal = tested on: 786-0 renal
CCRF-CEM leukemia = tested on: CCRF-CEM leukemia
KM20L2 colon = tested on: KM20L2 colon
MALME-3M melanoma = tested on: MALME-3M melanoma
SF-295 CNS = tested on: SF-295 CNS
IGROV1 ovarian = tested on: IGROV1 ovarian
UACC-62 melanoma = tested on: UACC-62 melanoma
SW-620 colon = tested on: SW-620 colon
TK-10 renal = tested on: TK-10 renal
M14 melanoma = tested on: M14 melanoma
DLD-1 colon = tested on: DLD-1 colon
U251 CNS = tested on: U251 CNS
ACHN renal = tested on: ACHN renal
XF 498 CNS = tested on: XF 498 CNS
HCC-2998 colon = tested on: HCC-2998 colon
SK-MEL-28 melanoma = tested on: SK-MEL-28 melanoma

## CCOC12OC3=C(CC1CC1=C(CCC1=O)O2)C(=O)CC3 (stereo unspecified)
A549 NSCLC
  TGI: > 100 µM
SNB-19 CNS
  TGI: > 100 µM
DMS 273 small cell lung
  TGI: > 100 µM
HL-60(TB) leukemia
  TGI: > 100 µM
NCI-H226 lung
  TGI: > 100 µM
HOP-18 NSCLC
  TGI: > 100 µM
OVCAR-8 ovarian
  TGI: > 100 µM
SK-MEL-5 melanoma
  TGI: > 100 µM
HCT-15 colon
  TGI: > 100 µM
RXF 393 renal
  TGI: > 100 µM
SK-MEL-2 melanoma
  TGI: > 100 µM
UO-31 renal
  TGI: > 100 µM
EKVX NSCLC
  TGI: > 100 µM
SNB-78 CNS
  TGI: > 100 µM
NCI-H522 lung
  TGI: > 100 µM
SF-539 CNS
  TGI: > 100 µM
UACC-257 melanoma
  TGI: > 100 µM
MOLT-4 leukemia
  TGI: > 100 µM
CAKI-1 renal
  TGI: > 100 µM
OVCAR-3 ovarian
  TGI: > 100 µM
DMS 114 small cell lung
  TGI: > 100 µM
SNB-75 CNS
  TGI: > 100 µM
RXF-631 renal
  TGI: > 100 µM
OVCAR-4 ovarian
  TGI: > 100 µM
LXFL 529 NSCLC
  TGI: > 100 µM
M19-MEL melanoma
  TGI: > 100 µM
NCI-H23 lung
  TGI: > 100 µM
K-562 leukemia
  TGI: > 100 µM
HCT-116 colon
  TGI: > 100 µM
COLO 205 colon
  TGI: > 100 µM
HOP-92 NSCLC
  TGI: > 100 µM
SN12C renal
  TGI: > 100 µM
KM12 colon
  TGI: > 100 µM
OVCAR-5 ovarian
  TGI: > 100 µM
SR leukemia
  TGI: > 100 µM
RPMI-8226 leukemia
  TGI: > 100 µM
LOX IMVI melanoma
  TGI: > 100 µM
HOP-62 NSCLC
  TGI: > 100 µM
SK-OV-3 ovarian
  TGI: > 100 µM
A498 renal
  TGI: > 100 µM
SF-268 CNS
  TGI: > 100 µM
NCI-H460 lung
  TGI: > 100 µM
HT29 colon
  TGI: > 100 µM
786-0 renal
  TGI: > 100 µM
CCRF-CEM leukemia
  TGI: > 100 µM
KM20L2 colon
  TGI: > 100 µM
MALME-3M melanoma
  TGI: > 100 µM
SF-295 CNS
  TGI: > 100 µM
IGROV1 ovarian
  TGI: > 100 µM
UACC-62 melanoma
  TGI: > 100 µM
SW-620 colon
  TGI: > 100 µM
TK-10 renal
  TGI: > 100 µM
M14 melanoma
  TGI: > 100 µM
DLD-1 colon
  TGI: > 100 µM
U251 CNS
  TGI: > 100 µM

## COC(=O)CCC(=O)CC(=O)C1=NS(=O)(=O)c2nc(S(N)(=O)=O)c(Cl)cc2N1
A549 NSCLC
  TGI: > 100 µM
SNB-19 CNS
  TGI: > 100 µM
DMS 273 small cell lung
  TGI: > 100 µM
ACHN renal
  TGI: > 100 µM
HL-60(TB) leukemia
  TGI: > 100 µM
NCI-H226 lung
  TGI: > 100 µM
HOP-18 NSCLC
  TGI: > 100 µM
OVCAR-8 ovarian
  TGI: > 100 µM
SK-MEL-5 melanoma
  TGI: > 100 µM
HCT-15 colon
  TGI: > 100 µM
RXF 393 renal
  TGI: > 100 µM
SK-MEL-2 melanoma
  TGI: > 100 µM
UO-31 renal
  TGI: > 100 µM
EKVX NSCLC
  TGI: > 100 µM
XF 498 CNS
  TGI: > 100 µM
NCI-H522 lung
  TGI: > 100 µM
SF-539 CNS
  TGI: > 100 µM
UACC-257 melanoma
  TGI: > 100 µM
MOLT-4 leukemia
  TGI: > 100 µM
HCC-2998 colon
  TGI: > 100 µM
CAKI-1 renal
  TGI: > 100 µM
OVCAR-3 ovarian
  TGI: > 100 µM
DMS 114 small cell lung
  TGI: > 100 µM
SNB-75 CNS
  TGI: > 100 µM
RXF-631 renal
  TGI: > 100 µM
OVCAR-4 ovarian
  TGI: > 100 µM
LXFL 529 NSCLC
  TGI: > 100 µM
M19-MEL melanoma
  TGI: > 100 µM
NCI-H23 lung
  TGI: > 100 µM
K-562 leukemia
  TGI: > 100 µM
HCT-116 colon
  TGI: > 100 µM
COLO 205 colon
  TGI: > 100 µM
HOP-92 NSCLC
  TGI: > 100 µM
SN12C renal
  TGI: > 100 µM
SK-MEL-28 melanoma
  TGI: > 100 µM
KM12 colon
  TGI: > 100 µM
OVCAR-5 ovarian
  TGI: > 100 µM
SR leukemia
  TGI: > 100 µM
RPMI-8226 leukemia
  TGI: > 100 µM
LOX IMVI melanoma
  TGI: > 100 µM
HOP-62 NSCLC
  TGI: > 100 µM
SK-OV-3 ovarian
  TGI: > 100 µM
A498 renal
  TGI: > 100 µM
SF-268 CNS
  TGI: > 100 µM
NCI-H460 lung
  TGI: > 100 µM
HT29 colon
  TGI: > 100 µM
CCRF-CEM leukemia
  TGI: > 100 µM
KM20L2 colon
  TGI: > 100 µM
MALME-3M melanoma
  TGI: > 100 µM
SF-295 CNS
  TGI: > 100 µM
IGROV1 ovarian
  TGI: > 100 µM
UACC-62 melanoma
  TGI: > 100 µM
TK-10 renal
  TGI: > 100 µM
M14 melanoma
  TGI: > 100 µM
DLD-1 colon
  TGI: > 100 µM
U251 CNS
  TGI: > 100 µM

## COC(=O)/C=C1/CCC2[C@@H](C(=O)CC3[C@]2(C)CCC[C@@]3(C)C(=O)OC)C1C (stereo partly specified)
A549 NSCLC
  TGI: 37.7 µM
SNB-19 CNS
  TGI: 33.4 µM
DMS 273 small cell lung
  TGI: 29.8 µM
ACHN renal
  TGI: 24.2 µM
HL-60(TB) leukemia
  TGI: 7.81 µM
NCI-H226 lung
  TGI: 46.1 µM
HOP-18 NSCLC
  TGI: 27.5 µM
OVCAR-8 ovarian
  TGI: 34.9 µM
SK-MEL-5 melanoma
  TGI: 20.8 µM
HCT-15 colon
  TGI: 35.9 µM
SK-MEL-2 melanoma
  TGI: 35.7 µM
UO-31 renal
  TGI: 37.5 µM
EKVX NSCLC
  TGI: 42.3 µM
XF 498 CNS
  TGI: 30.3 µM
SNB-78 CNS
  TGI: 40.5 µM
NCI-H522 lung
  TGI: 19.7 µM
SF-539 CNS
  TGI: 28.5 µM
UACC-257 melanoma
  TGI: 24.7 µM
MOLT-4 leukemia
  TGI: 19.1 µM
HCC-2998 colon
  TGI: 39.8 µM
CAKI-1 renal
  TGI: 17.4 µM
OVCAR-3 ovarian
  TGI: 20.4 µM
DMS 114 small cell lung
  TGI: 24.8 µM
RXF-631 renal
  TGI: 30.9 µM
OVCAR-4 ovarian
  TGI: 21.6 µM
LXFL 529 NSCLC
  TGI: 20.8 µM
M19-MEL melanoma
  TGI: 31.2 µM
NCI-H23 lung
  TGI: 31.6 µM
K-562 leukemia
  TGI: 14.2 µM
HCT-116 colon
  TGI: 19.1 µM
COLO 205 colon
  TGI: 18.1 µM
HOP-92 NSCLC
  TGI: 18.1 µM
SN12C renal
  TGI: 40.6 µM
SK-MEL-28 melanoma
  TGI: 26.8 µM
KM12 colon
  TGI: 27 µM
OVCAR-5 ovarian
  TGI: 39.4 µM
RPMI-8226 leukemia
  TGI: 14.4 µM
HOP-62 NSCLC
  TGI: 39.5 µM
SK-OV-3 ovarian
  TGI: 51.6 µM
A498 renal
  TGI: 34.4 µM
SF-268 CNS
  TGI: 38.6 µM
NCI-H460 lung
  TGI: 51.7 µM
HT29 colon
  TGI: 20.2 µM
786-0 renal
  TGI: 36 µM
CCRF-CEM leukemia
  TGI: 17.6 µM
KM20L2 colon
  TGI: 29.5 µM
MALME-3M melanoma
  TGI: 34.8 µM
SF-295 CNS
  TGI: 33.1 µM
IGROV1 ovarian
  TGI: 43.6 µM
UACC-62 melanoma
  TGI: 30.1 µM
SW-620 colon
  TGI: 22.5 µM
TK-10 renal
  TGI: 36.1 µM
M14 melanoma
  TGI: 29.1 µM
DLD-1 colon
  TGI: 37.1 µM
U251 CNS
  TGI: 29.5 µM
